Broadly, the MIC is the least concentration at which growth counts as inhibited. What is called inhibition is the share of the control response that was lost under treatment. A lower inhibition goes with little suppression. One may read the IC50 as the concentration that inhibits the measured activity by half. Low values mean higher potency, high ones lower potency.

The subject of one experiment is Candida albicans. In words: Antifungal activity against Candida albicans ATCC 76615 assessed as fungal growth inhibition incubated for 24 hrs by CLSI protocol based broth microdilution method. The experiment is classed as functional.
In another experiment the test system is Aspergillus fumigatus. In words: Antifungal activity against Aspergillus fumigatus GIMCC 3.19 assessed as fungal growth inhibition incubated for 24 hrs by CLSI protocol based broth microdilution method. The experiment is classed as functional. (In general: Dilution methods test growth across graded concentrations, often in twofold steps.)
Another experiment deals with Candida tropicalis. In words: Inhibition of Candida tropicalis ATCC 750 chitin synthase using UDP-GlcNAc as substrate at 300 ug/ml incubated for 1 hrs by absorbance based assay relative to control. Particulars: dose 300.0 µg/ml.
Another experiment relates to Cryptococcus neoformans. The experiment can be described thus: Antifungal activity against Cryptococcus neoformans ATCC 208821 assessed as fungal growth inhibition incubated for 24 hrs by CLSI protocol based broth microdilution method. The experiment is classed as functional.
The subject of another experiment is Aspergillus flavus. In words: Antifungal activity against Aspergillus flavus ATCC 16870 assessed as fungal growth inhibition incubated for 24 hrs by CLSI protocol based broth microdilution method. The experiment is classed as functional.
The nature of experiment [1]: Inhibition of Candida tropicalis ATCC 750 chitin synthase using UDP-GlcNAc as substrate incubated for 1 hrs by absorbance based assay.

≈ marks a conversion by molar mass, not a printed value.

With `COc1ccc2c(c1)C1(CCN(C(=O)/C=C/C(=O)Nc3ccc([N+](=O)[O-])cc3)CC1)OC(=O)N2`, the MIC in the experiment on Candida albicans was 512 µg/mL (≈ 1100 µM); in the experiment with Aspergillus fumigatus, greater than 512 µg/mL; with Cryptococcus neoformans, greater than 512 µg/mL; with Aspergillus flavus, greater than 512 µg/mL. For the same compound, the inhibition with Candida tropicalis is 13%.
On to `COc1ccc2c(c1)C1(CCN(C(=O)/C=C/C(=O)Nc3cc(C)cc(C)c3)CC1)OC(=O)N2`, for which the MIC in the experiment on Candida albicans was 512 µg/mL (≈ 1140 µM); in the experiment on Aspergillus fumigatus, greater than 512 µg/mL; in the experiment on Cryptococcus neoformans it was greater than 512 µg/mL; in the experiment on Aspergillus flavus it was 512 µg/mL (≈ 1140 µM). For the same compound, in the experiment on Candida tropicalis, the inhibition amounted to 16%.
Turning to `COc1ccc2c(c1)C1(CCN(C(=O)/C=C/C(=O)Nc3ccccc3[N+](=O)[O-])CC1)OC(=O)N2`, the MIC worked out at 512 µg/mL (≈ 1100 µM) with Candida albicans, 256 µg/mL (≈ 549 µM) in the experiment on Aspergillus fumigatus, 256 µg/mL (≈ 549 µM) in the experiment with Cryptococcus neoformans and 512 µg/mL (≈ 1100 µM) in the experiment with Aspergillus flavus. The same compound displayed an inhibition in the experiment on Candida tropicalis of 18%.
Consider `COc1ccc2c(c1)C1(CCN(C(=O)CCC(=O)Nc3ccc(C)cc3)CC1)OC(=O)N2`, for which the MIC with Candida albicans was 128 µg/mL (≈ 293 µM); in the experiment with Aspergillus fumigatus it was greater than 512 µg/mL; in the experiment with Cryptococcus neoformans it was 256 µg/mL (≈ 585 µM); with Aspergillus flavus it was 256 µg/mL (≈ 585 µM). This compound displayed an inhibition with Candida tropicalis of 11%.
For the compound `COc1ccc(NC(=O)CC(=O)N2CCC3(CC2)OC(=O)Nc2ccc(OC)cc23)cc1`, the minimal inhibitory concentration (MIC) with Candida albicans is 512 µg/mL (≈ 1170 µM); with Aspergillus fumigatus it was 256 µg/mL (≈ 583 µM); with Cryptococcus neoformans it was greater than 512 µg/mL; in the experiment with Aspergillus flavus, greater than 512 µg/mL. In the experiment with Candida tropicalis, the inhibition is 16%.
Turning to `COc1ccc(NC(=O)CCC(=O)N2CCC3(CC2)OC(=O)Nc2ccc(OC)cc23)cc1`, the minimal inhibitory concentration (MIC) was greater than 512 µg/mL in the experiment with Candida albicans, 256 µg/mL (≈ 565 µM) in the experiment with Aspergillus fumigatus, 256 µg/mL (≈ 565 µM) with Cryptococcus neoformans and greater than 512 µg/mL in the experiment with Aspergillus flavus. Besides, the inhibition in the experiment on Candida tropicalis came to 17%.
`COc1ccc2c(c1)C1(CCN(C(=O)CC(=O)Nc3ccc(Br)cc3)CC1)OC(=O)N2`: the MIC worked out at 512 µg/mL (≈ 1050 µM) with Candida albicans, 256 µg/mL (≈ 524 µM) with Aspergillus fumigatus, 256 µg/mL (≈ 524 µM) in the experiment with Cryptococcus neoformans and 256 µg/mL (≈ 524 µM) in the experiment with Aspergillus flavus. This compound displayed an inhibition with Candida tropicalis of 18%.
Turning to `COc1ccc2c(c1)C1(CCN(C(=O)C(O)C(O)C(=O)Nc3ccc(C)cc3)CC1)OC(=O)N2` (configuration not stated), the MIC in the experiment with Candida albicans was greater than 512 µg/mL; in the experiment on Aspergillus fumigatus, 256 µg/mL (≈ 545 µM); in the experiment on Cryptococcus neoformans, greater than 512 µg/mL; with Aspergillus flavus, greater than 512 µg/mL. Further, the inhibition with Candida tropicalis was determined as 43%.
Turning to `COc1ccc2c(c1)C1(CCN(C(=O)CC(=O)Nc3ccc(C)cc3)CC1)OC(=O)N2`, the MIC with Candida albicans was 512 µg/mL (≈ 1210 µM); in the experiment with Aspergillus fumigatus it was greater than 512 µg/mL; with Cryptococcus neoformans, greater than 512 µg/mL; with Aspergillus flavus it was greater than 512 µg/mL. In the experiment on Candida tropicalis, this compound registered an inhibition of 13%.
Regarding `COc1ccc2c(c1)C1(CCN(C(=O)C(O)C(O)C(=O)Nc3ccc(Br)cc3)CC1)OC(=O)N2` (configuration not stated), the minimal inhibitory concentration (MIC) in the experiment on Candida albicans is greater than 512 µg/mL; in the experiment with Aspergillus fumigatus it was greater than 512 µg/mL; in the experiment with Cryptococcus neoformans it was 512 µg/mL (≈ 958 µM); with Aspergillus flavus, 512 µg/mL (≈ 958 µM). In the experiment with Candida tropicalis, this compound had an inhibition of 43%.
In turn, `COc1ccc2c(c1)C1(CCN(C(=O)/C=C/C(=O)Nc3ccccc3OC)CC1)OC(=O)N2` had an IC50 in experiment [1] of 330 µM. Moreover, the MIC with Candida albicans stood at 64 µg/mL (≈ 142 µM); with Aspergillus fumigatus, 128 µg/mL (≈ 284 µM); in the experiment on Cryptococcus neoformans it was 256 µg/mL (≈ 567 µM); in the experiment on Aspergillus flavus it was 128 µg/mL (≈ 284 µM). This compound also registered an inhibition with Candida tropicalis of 60%.
On to `COc1ccc2c(c1)C1(CCN(C(=O)/C=C/C(=O)Nc3ccc(Cl)cc3)CC1)OC(=O)N2`, for which the MIC was 512 µg/mL (≈ 1120 µM) in the experiment with Candida albicans, 128 µg/mL (≈ 281 µM) with Aspergillus fumigatus, 512 µg/mL (≈ 1120 µM) with Cryptococcus neoformans and 256 µg/mL (≈ 562 µM) with Aspergillus flavus. The compound further had an inhibition in the experiment with Candida tropicalis of 51%.
For the compound `COc1ccc2c(c1)C1(CCN(C(=O)/C=C/C(=O)Nc3ccccc3C)CC1)OC(=O)N2`, the MIC in the experiment with Candida albicans is 256 µg/mL (≈ 588 µM); in the experiment on Aspergillus fumigatus, greater than 512 µg/mL; in the experiment on Cryptococcus neoformans, greater than 512 µg/mL; in the experiment on Aspergillus flavus, 512 µg/mL (≈ 1180 µM). For the same compound, the inhibition in the experiment on Candida tropicalis came out at 14%.
As to `COc1ccc2c(c1)C1(CCN(C(=O)/C=C/C(=O)Nc3cccc(C)c3)CC1)OC(=O)N2`, the MIC with Candida albicans was 256 µg/mL (≈ 588 µM); in the experiment on Aspergillus fumigatus, greater than 512 µg/mL; with Cryptococcus neoformans it was greater than 512 µg/mL; with Aspergillus flavus, greater than 512 µg/mL. Also, in the experiment with Candida tropicalis, the inhibition stood at 42%.
Regarding `COc1ccc2c(c1)C1(CCN(C(=O)CCC(=O)Nc3ccccc3)CC1)OC(=O)N2`, the minimum inhibitory concentration (MIC) in the experiment on Candida albicans was greater than 512 µg/mL; in the experiment with Aspergillus fumigatus, greater than 512 µg/mL; with Cryptococcus neoformans it was greater than 512 µg/mL; with Aspergillus flavus it was 256 µg/mL (≈ 605 µM). This compound displayed an inhibition in the experiment with Candida tropicalis of 6%.
`COc1ccc2c(c1)C1(CCN(C(=O)/C=C/C(=O)Nc3ccccc3Br)CC1)OC(=O)N2`: the MIC stood at 256 µg/mL (≈ 512 µM) with Candida albicans, 128 µg/mL (≈ 256 µM) in the experiment on Aspergillus fumigatus, 256 µg/mL (≈ 512 µM) with Cryptococcus neoformans and 64 µg/mL (≈ 128 µM) with Aspergillus flavus. In the experiment on Candida tropicalis, the inhibition was 40%.
On to `COc1ccc2c(c1)C1(CCN(C(=O)/C=C/C(=O)Nc3cccc4ccccc34)CC1)OC(=O)N2`, for which the MIC in the experiment with Candida albicans is 256 µg/mL (≈ 543 µM); with Aspergillus fumigatus it was greater than 512 µg/mL; with Cryptococcus neoformans, 256 µg/mL (≈ 543 µM); in the experiment with Aspergillus flavus it was greater than 512 µg/mL. Moreover, the inhibition in the experiment on Candida tropicalis amounted to 46%.
Consider `COc1ccc2c(c1)C1(CCN(C(=O)/C=C/C(=O)Nc3ccc(C(F)(F)F)cc3)CC1)OC(=O)N2`, for which the MIC in the experiment with Candida albicans is 512 µg/mL (≈ 1050 µM); in the experiment on Aspergillus fumigatus, greater than 512 µg/mL; with Cryptococcus neoformans, 256 µg/mL (≈ 523 µM); in the experiment on Aspergillus flavus it was 128 µg/mL (≈ 262 µM). In the experiment with Candida tropicalis, this compound returned an inhibition of 15%.
Taken in the same sequence, the figures for `COc1ccc2c(c1)C1(CCN(C(=O)CCC(=O)Nc3ccc(Br)cc3)CC1)OC(=O)N2` were 107 µg/mL (≈ 212 µM), 512 µg/mL (≈ 1020 µM), 256 µg/mL (≈ 510 µM), 256 µg/mL (≈ 510 µM) and 23%.
As to `COc1ccc2c(c1)C1(CCN(C(=O)CC(=O)Nc3ccccc3)CC1)OC(=O)N2`, the MIC in the experiment with Candida albicans is 512 µg/mL (≈ 1250 µM); with Aspergillus fumigatus, greater than 512 µg/mL; in the experiment with Cryptococcus neoformans it was 256 µg/mL (≈ 625 µM); in the experiment on Aspergillus flavus, 256 µg/mL (≈ 625 µM). The inhibition in the experiment on Candida tropicalis came to 16%.
`COc1ccc2c(c1)C1(CCN(C(=O)C(O)C(O)C(=O)Nc3ccccc3)CC1)OC(=O)N2` (configuration not stated): the MIC in the experiment on Candida albicans is 512 µg/mL (≈ 1120 µM); in the experiment on Aspergillus fumigatus, 512 µg/mL (≈ 1120 µM); in the experiment on Cryptococcus neoformans, greater than 512 µg/mL; with Aspergillus flavus it was 512 µg/mL (≈ 1120 µM). In the experiment on Candida tropicalis, this compound showed an inhibition of 41%.
`COc1ccc2c(c1)C1(CCN(C(=O)/C=C/C(=O)Nc3ccc(C)cc3)CC1)OC(=O)N2` had an IC50 in experiment [1] of 370 µM. The MIC in the experiment on Candida albicans was 128 µg/mL (≈ 294 µM); in the experiment on Aspergillus fumigatus, 256 µg/mL (≈ 588 µM); in the experiment with Cryptococcus neoformans, 256 µg/mL (≈ 588 µM); in the experiment on Aspergillus flavus it was 256 µg/mL (≈ 588 µM). In the experiment with Candida tropicalis, the inhibition was found to be 65%.
Turning to `COc1ccc(NC(=O)C(O)C(O)C(=O)N2CCC3(CC2)OC(=O)Nc2ccc(OC)cc23)cc1` (configuration not stated), the MIC in the experiment on Candida albicans is greater than 512 µg/mL; in the experiment with Aspergillus fumigatus it was 256 µg/mL (≈ 527 µM); in the experiment with Cryptococcus neoformans it was greater than 512 µg/mL; in the experiment on Aspergillus flavus it was 512 µg/mL (≈ 1050 µM). In the experiment on Candida tropicalis, this compound yielded an inhibition of 52%.
In the case of `COc1ccc2c(c1)C1(CCN(C(=O)/C=C/C(=O)Nc3ccc(C(F)(F)F)cc3C(F)(F)F)CC1)OC(=O)N2`, the MIC is 256 µg/mL (≈ 459 µM) with Candida albicans, greater than 512 µg/mL in the experiment on Aspergillus fumigatus, greater than 512 µg/mL with Cryptococcus neoformans and greater than 512 µg/mL with Aspergillus flavus. Moreover, in the experiment with Candida tropicalis, the inhibition is 30%.
Consider `COc1cccc(NC(=O)/C=C/C(=O)N2CCC3(CC2)OC(=O)Nc2ccc(OC)cc23)c1`, for which the MIC in the experiment with Candida albicans came to 256 µg/mL (≈ 567 µM); in the experiment with Aspergillus fumigatus, 128 µg/mL (≈ 284 µM); with Cryptococcus neoformans, 64 µg/mL (≈ 142 µM); with Aspergillus flavus it was 128 µg/mL (≈ 284 µM). This compound also registered an inhibition in the experiment on Candida tropicalis of 37%.
For `COc1ccc2c(c1)C1(CCN(C(=O)/C=C/C(=O)Nc3cccc([N+](=O)[O-])c3)CC1)OC(=O)N2`, the MIC in the experiment on Candida albicans came out at 128 µg/mL (≈ 274 µM); in the experiment on Aspergillus fumigatus, 107 µg/mL (≈ 229 µM); in the experiment on Cryptococcus neoformans, 256 µg/mL (≈ 549 µM); with Aspergillus flavus it was 256 µg/mL (≈ 549 µM). For the same compound, in the experiment with Candida tropicalis, the inhibition came out at 34%.

The record behind these values is ChEMBL document CHEMBL5331050, “Spiro[benzoxazine-piperidin]-one derivatives as chitin synthase inhibitors and antifungal agents: Design, synthesis and biological evaluation” (Eur J Med Chem, 2022).
